The subject of this series is RNA molecular beacon and Target RNA. The experiment in a line: RNA annealing kinetics (molecular beacon and Target RNAs), stopped-flow fluorescence. Format: biochemical. The following applies: 30 °C. As for the experimental part:
Figure 2. CTD and RNA occupy the same rim binding site. […] The CTD linker is shown in purple, the acidic tip in red and the N-terminal FITC as a yellow star. Hfq core is shown in cyan, with basic rim patches in dark blue. […] (C) Reaction scheme for annealing an RNA molecular beacon to a target RNA (open bar) ([Hopkins et al., 2011]; [Panja et al., 2015]). (D) Progress curves for annealing 50 nM molecular beacon and 100 nM Target by 50 nM Hfq65 hexamer at 30°C, measured by stopped-flow fluorescence. See Figure 2—figure supplement 3 for further data. (E) Contribution of core residues to CTD binding. Interaction energy (Expected Energetic Contribution; EEC) in silico for a core residue in the Rosetta models (solid symbols and solid line; adjusted R^2 = 0.77) or the average annealing rates for Target and Target-A18 relative to Hfq65 (open symbols and dashed line; adjusted R^2 = 0.94) versus experimental CTD binding energy (∆∆G°) for each Hfq65 variant. The binding energy, ∆∆G° = –RTln(Kd^MUT/Kd), reflects the perturbation to CTD binding by a mutation in Hfq65. The interaction energy in silico or EEC is defined as the average energy of a tail–core interaction multiplied by the average number of tail–core interactions per model (Figure 1B, top and Equation 3). The relative annealing rate for Hfq65 variants, krel = kobs^MUT/kobs^WT, is <1 if the mutated residue is important for RNA annealing. Figure 2—figure supplement 1. SDS-PAGE of purified Hfq variants. […] Annealing of 100 nM Target RNA to 50 nM beacon RNA by Hfq65 and Hfq65 variants was measured by stopped flow fluorescence at 30°C in 1 × TNK buffer. […] The change in fluorescence emission intensity was normalized to the maximum fluorescence within an experiment. […]
To determine how much core residues that bind the CTD contribute to Hfq’s RNA annealing activity, we compared the effect of rim mutations on the rate of base pairing between an RNA molecular beacon and the 16 nt Target RNA by stopped-flow fluorescence spectroscopy (Figure 2C) ([Hopkins et al., 2011]). […]

For Hfq65-R16A, where the note is “50 nM molecular beacon, 100 nM Target, Hfq65 variants, TNK buffer”, the “observed annealing rate of Hfq65 rim mutants” value is on record as “most diminished”. Turning to “Hfq65: truncated E. coli Hfq variant lacking the CTD”, for the setting “50 nM beacon, 100 nM Target RNA, 0–200 nM Hfq hexamer”, the “activity in single-turnover annealing assays” value is “highly active”.

These data come from article PMC5606850, “Acidic C-terminal domains autoregulate the RNA chaperone Hfq” (eLife, 2017).
